Assay results reported in PubChem BioAssay AID248 (DTP/NCI, 2004).
“And” between values parts separate entries of the source, which are not always exact repeats. Equal entries are not always repeated. Inconclusive results and toxic doses are left out. Rule as the data show it: active = T/C of 150% or more; inactive = T/C below 125%.

System: L1210 leukemia ip in BDF1 mice, survival T/C
Experiment: NCI In Vivo Anticancer Drug Screen. Data for tumor model L1210 Leukemia (intraperitoneal) in B6D2F1 (BDF1) mice
Conditions: endpoint: mean survival time, higher = longer survival
Summary of the method: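 Antitumor effect is assessed in tumor-bearing animals. Survival in the compound arm is compared with a vehicle-dosed control arm and expressed as their quotient.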

[1] = dose: 100.0 mg/kg/injection, schedule: Q01DX001 (ip), vehicle: carboxymethylcellulose (CMC)
[2] = dose: 200.0 mg/kg/injection, schedule: Q01DX001 (ip), vehicle: carboxymethylcellulose (CMC)
[3] = dose: 100.0 mg/kg/injection, schedule: Q04DX003 (ip), vehicle: saline with Tween-80
[4] = dose: 200.0 mg/kg/injection, schedule: Q04DX003 (ip), vehicle: saline with Tween-80
[5] = dose: 400.0 mg/kg/injection, schedule: Q04DX003 (ip), vehicle: saline with Tween-80
[6] = dose: 100.0 mg/kg/injection, schedule: Q01DX009 (ip), vehicle: Klucel (hydroxypropylcellulose) (HPC)
[7] = dose: 100.0 mg/kg/injection, schedule: Q04DX003 (ip), vehicle: Klucel (hydroxypropylcellulose) (HPC)
[8] = dose: 200.0 mg/kg/injection, schedule: Q01DX009 (ip), vehicle: Klucel (hydroxypropylcellulose) (HPC)
[9] = dose: 200.0 mg/kg/injection, schedule: Q04DX003 (ip), vehicle: Klucel (hydroxypropylcellulose) (HPC)
[10] = dose: 400.0 mg/kg/injection, schedule: Q01DX009 (ip), vehicle: Klucel (hydroxypropylcellulose) (HPC)
[11] = dose: 400.0 mg/kg/injection, schedule: Q04DX003 (ip), vehicle: Klucel (hydroxypropylcellulose) (HPC)
[12] = dose: 50.0 mg/kg/injection, schedule: Q01DX009 (ip), vehicle: Klucel (hydroxypropylcellulose) (HPC)
[13] = dose: 100.0 mg/kg/injection, schedule: Q04DX002 (ip), vehicle: Klucel (hydroxypropylcellulose) (HPC)
[14] = dose: 200.0 mg/kg/injection, schedule: Q04DX002 (ip), vehicle: Klucel (hydroxypropylcellulose) (HPC)
[15] = dose: 400.0 mg/kg/injection, schedule: Q04DX002 (ip), vehicle: Klucel (hydroxypropylcellulose) (HPC)
[16] = dose: 100.0 mg/kg/injection, schedule: Q01DX001 (ip), vehicle: Klucel (hydroxypropylcellulose) (HPC)
[17] = dose: 200.0 mg/kg/injection, schedule: Q01DX001 (ip), vehicle: Klucel (hydroxypropylcellulose) (HPC)
[18] = dose: 400.0 mg/kg/injection, schedule: Q01DX001 (ip), vehicle: Klucel (hydroxypropylcellulose) (HPC)
[19] = dose: 400.0 mg/kg/injection, schedule: Q01DX001 (ip), vehicle: carboxymethylcellulose (CMC)
[20] = dose: 100.0 mg/kg/injection, schedule: Q01DX001 (ip), vehicle: saline
[21] = dose: 200.0 mg/kg/injection, schedule: Q01DX001 (ip), vehicle: saline
[22] = dose: 400.0 mg/kg/injection, schedule: Q01DX001 (ip), vehicle: saline
[23] = dose: 100.0 mg/kg/injection, schedule: Q01DX009 (ip), vehicle: saline with Tween-80
[24] = dose: 200.0 mg/kg/injection, schedule: Q01DX009 (ip), vehicle: saline with Tween-80
[25] = dose: 400.0 mg/kg/injection, schedule: Q01DX009 (ip), vehicle: saline with Tween-80

Measured: T/C

C/C=C/C=N/NC(=O)c1ccc[n+](C)c1
inactive: dose: 50.0 mg/kg/injection, schedule: Q01DX009 (ip), vehicle: saline 112 % of control | dose: 100.0 mg/kg/injection, schedule: Q01DX009 (ip), vehicle: saline 104 % of control | dose: 200.0 mg/kg/injection, schedule: Q01DX009 (ip), vehicle: saline 112 % of control

c1ccc2c3c(cc(C4CCCC4)c2c1)CCCC3
inactive: [1] 88 % of control | [2] 91 % of control

COc1cc2c(c(OC)c1OC)-c1cc3c(cc1[C@@H](OC(C)=O)[C@@H]1COC(=O)[C@H]1C2)OCO3
inactive: dose: 6.22 mg/kg/injection, schedule: Q01DX009 (ip), vehicle: saline + alcohol 89 % of control | dose: 9.33 mg/kg/injection, schedule: Q01DX009 (ip), vehicle: saline + alcohol 94 % of control | dose: 14.0 mg/kg/injection, schedule: Q01DX009 (ip), vehicle: saline + alcohol 107 % of control | dose: 21.0 mg/kg/injection, schedule: Q01DX009 (ip), vehicle: saline + alcohol 105 % of control

O=[N+]([O-])c1ccc2nc(-c3ccc(S(=O)(=O)F)cc3)cc(Cl)c2c1
inactive: [3] 98 % of control | [4] 106 % of control | [5] 98 % of control

CC(C)(Cl)CNC(=O)c1ccc([N+](=O)[O-])cc1
inactive: [6] 92 % of control | [7] 107 % of control | [8] 96 % of control | [9] 94 % of control | [10] 91 % of control | [11] 92 % of control

C=CP(c1ccccc1)c1ccccc1
inactive: dose: 100.0 mg/kg/injection, schedule: Q01DX009 (ip), vehicle: saline sonified 103 % of control | dose: 200.0 mg/kg/injection, schedule: Q01DX009 (ip), vehicle: saline sonified 110 % of control

O=C(O)CCC(=O)c1ccc(Br)cc1
inactive: [12] 100 % of control | [6] 95 % of control | [8] 101 % of control

O=C(Oc1ccccc1[N+](=O)[O-])c1ccc(Cl)c(Cl)c1
inactive: [13] 90 % of control | [14] 97 % of control | [15] 100 % of control

O=C(NC(c1ccccc1)C(NC(=O)c1ccccc1)c1ccccc1)c1ccccc1 (stereo not given)
inactive: [16] 99 % of control | [17] 99 % of control | [18] 97 % of control

O=C1C2(c3ccccc3)CC(Cc3ccccc3)C1(c1ccccc1)C(c1ccccc1)=C2c1ccccc1 (stereo not given)
inactive: dose: 50.0 mg/kg/injection, schedule: Q01DX001 (ip), vehicle: carboxymethylcellulose (CMC) 100 % of control | [1] 97 % of control | [2] 111 % of control | [19] 95 % of control

CC(=O)OC1C(C=O)OC(C)(C)OC1C1COC(=O)O1 (stereo not given)
inactive: dose: 25.0 mg/kg/injection, schedule: Q04DX002 (ip), vehicle: Klucel (hydroxypropylcellulose) (HPC) 104 % of control | dose: 50.0 mg/kg/injection, schedule: Q04DX002 (ip), vehicle: Klucel (hydroxypropylcellulose) (HPC) 93 % of control | [13] 100 % of control

CC(C)c1ccc(C(C2C(=O)CC(C)(C)CC2=O)C2C(=O)CC(C)(C)CC2=O)cc1
inactive: [20] 103 % of control | [21] 109 % of control | [22] 107 % of control

CCCCCCCCCCCCCCCCOc1ccc(C(=O)CC(=O)OC)cc1
inactive: [6] 93 % of control | dose: 100.0 mg/kg/injection, schedule: Q04DX003 (ip), vehicle: other 94 % of control | [8] 92 % of control | dose: 200.0 mg/kg/injection, schedule: Q04DX003 (ip), vehicle: other 101 % of control | [10] 92 % of control | dose: 400.0 mg/kg/injection, schedule: Q04DX003 (ip), vehicle: other 94 % of control

Cc1ccc(NC(=O)Oc2ccc(F)cc2Cl)cc1NC(=O)Oc1ccc(F)cc1Cl
inactive: [23] 91 % of control | [3] 95 % of control | [24] 100 % of control | [4] 88 % of control | [25] 86 % of control | [5] 95 % of control

CC12CCC(=O)C=C1CCC1C2CCC2(C)C1CCC2[N+](C)(C)C (stereo not given)
inactive: dose: 75.0 mg/kg/injection, schedule: Q01DX001 (ip), vehicle: other 108 % of control

Cc1ccccc1NC(=O)CI
inactive: dose: 12.5 mg/kg/injection, schedule: Q01DX009 (ip), vehicle: Klucel (hydroxypropylcellulose) (HPC) 97 % of control | dose: 25.0 mg/kg/injection, schedule: Q01DX009 (ip), vehicle: Klucel (hydroxypropylcellulose) (HPC) 103 % of control | [12] 101 % of control

C=C1C(=O)O[C@@H]2C[C@@]3(C)CCC[C@H](C)C3=C[C@H]12
inactive: [20] 112 % of control | [21] 98 % of control | [22] 102 % of control

Cc1ncc(CCO)c2c1OC(C)(C)OC2
inactive: [1] 98 % of control | [2] 110 % of control | [19] 101 % of control

COc1ccccc1N(N=O)C(=O)CC(C)=O
inactive: [20] 101 % of control | [21] 101 % of control | [22] 101 % of control

OCc1ccc(Cl)cc1
inactive: [23] 102 % of control | [24] 98 % of control | [25] 96 % of control

C[C@]12CC[C@@H]3c4ccc(OCC(=O)O)cc4CC[C@H]3[C@@H]1CCC2=O
inactive: dose: 75.0 mg/kg/injection, schedule: Q01DX009 (ip), vehicle: Klucel (hydroxypropylcellulose) (HPC) 97 % of control | dose: 150.0 mg/kg/injection, schedule: Q01DX009 (ip), vehicle: Klucel (hydroxypropylcellulose) (HPC) 90 % of control

COc1ccc([N+](=O)[O-])cc1NC(=O)NCc1cccnc1
inactive: [16] 91 % of control | [6] 93 % of control and 91 % of control | [13] 87 % of control and 92 % of control | [7] 103 % of control | [17] 93 % of control | [8] 93 % of control and 98 % of control | [14] 97 % of control and 87 % of control | [9] 100 % of control | [18] 90 % of control | [10] 93 % of control and 95 % of control | [15] 97 % of control and 92 % of control | [11] 101 % of control

CCCCCCCCC(=O)NCc1ccco1
inactive: [6] 92 % of control | [8] 91 % of control | [10] 94 % of control

Clc1ccc(Cl)c(OCC2=NCCN2)c1
inactive: dose: 20.0 mg/kg/injection, schedule: Q04DX003 (ip), vehicle: Klucel (hydroxypropylcellulose) (HPC) 102 % of control | dose: 40.0 mg/kg/injection, schedule: Q04DX003 (ip), vehicle: Klucel (hydroxypropylcellulose) (HPC) 101 % of control

CCOC(=O)C(=O)c1ccc[nH]1
inactive: dose: 100.0 mg/kg/injection, schedule: Q01DX001 (ip), vehicle: saline with Tween-80 114 % of control | [3] 94 % of control | dose: 200.0 mg/kg/injection, schedule: Q01DX001 (ip), vehicle: saline with Tween-80 115 % of control | [4] 101 % of control | dose: 400.0 mg/kg/injection, schedule: Q01DX001 (ip), vehicle: saline with Tween-80 111 % of control | [5] 92 % of control

CSc1nc(SCc2ccc(Cl)cc2)ncc1C
inactive: dose: 50.0 mg/kg/injection, schedule: Q01DX Z (ip), vehicle: methylcellulose (MC) 92 % of control | dose: 200.0 mg/kg/injection, schedule: Q01DX Z (ip), vehicle: methylcellulose (MC) 94 % of control

O=C1c2ccccc2C(=O)N1CNCCCNCN1C(=O)c2ccccc2C1=O
inactive: [3] 93 % of control | [4] 95 % of control | [5] 96 % of control

S=C(Nc1ccccc1)Nc1ccccc1Cl
inactive: [13] 100 % of control | [14] 100 % of control | [15] 95 % of control
